The text below walks through data of patent publication US20100125081A1, “NEW COMPOUNDS 574” (ASTRAZENECA AB, priority 2008, published 2010).

Each structure is given as a SMILES string.

This experiment deals with T1, human β-Secretase (Homo sapiens, UniProt P56817).
T1 construct: soluble part of the human β-Secretase (AA 1-AA 460); Fc domain of IgG1 (C); made in house
T1 sequence (P56817 22-460): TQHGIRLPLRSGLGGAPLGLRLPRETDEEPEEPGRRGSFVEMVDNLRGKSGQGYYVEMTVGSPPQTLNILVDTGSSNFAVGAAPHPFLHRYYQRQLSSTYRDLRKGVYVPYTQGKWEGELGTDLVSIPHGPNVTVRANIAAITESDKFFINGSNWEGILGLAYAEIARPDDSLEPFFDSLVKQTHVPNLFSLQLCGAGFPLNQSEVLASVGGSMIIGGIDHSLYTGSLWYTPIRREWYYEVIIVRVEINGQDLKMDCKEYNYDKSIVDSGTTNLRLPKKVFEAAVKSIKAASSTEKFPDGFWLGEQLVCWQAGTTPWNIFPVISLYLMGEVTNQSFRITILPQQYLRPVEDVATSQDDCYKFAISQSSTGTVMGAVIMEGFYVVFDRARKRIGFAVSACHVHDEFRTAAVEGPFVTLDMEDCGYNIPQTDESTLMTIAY
Put plainly: TR-FRET assay (β-secretase enzyme, sBACE-Fc). Type of experiment: biochemical. Particulars: soluble human β-secretase (AA 1-460) Fc fusion, substrate (Europium)CEVNLDAEFK(Qsy7) 100 nM, pH 4.5; unit inferred, nM taken. Here is the method: The β-secretase enzyme used in the TR-FRET is prepared as follows:
The cDNA for the soluble part of the human β-Secretase (AA 1-AA 460) was cloned using the ASP2-Fc10-1-IRES-GFP-neoK mammalian expression vector. The gene was fused to the Fc domain of IgG1 (affinity tag) and stably cloned into HEK 293 cells.
The enzyme (truncated form) was diluted to 6 μg/mL (stock 1.3 mg/mL) and the substrate (Europium)CEVNLDAEFK(Qsy7) to 200 nM (stock 120 μM) in reaction buffer (NaAcetate, chaps, triton x-100, EDTA pH4.5). The robotic systems Biomek FX and Velocity 11 were used for all liquid handling and the enzyme and substrate solutions were kept on ice until they were placed in the robotic system. Enzyme (9 μl) was added to the plate then 1 μl of compound in dimethylsulphoxide was added, mixed and pre-incubated for 10 minutes. Substrate (10 μl) was then added, mixed and the reaction proceeded for 15 minutes at room temperature. The reaction was stopped with the addition of Stop solution (7 μl, NaAcetate, pH 9). The fluorescence of the product was measured on a Victor II plate reader with an excitation wavelength of 340 nm and an emission wavelength of 615 nm. The assay was performed in a Costar 384 well round bottom, low volume, non-binding surface plate (Corning #3676). The final concentration of the enzyme was 2.7 μg/ml; the final concentration of substrate was 100 nM (Km of ˜250 nM). The dimethylsulphoxide control, instead of test compound, defined the 100% activity level and 0% activity was defined by wells lacking enzyme (replaced with reaction buffer).
(TR-FRET usually uses a lanthanide donor and a delayed reading to cut background.)
A word on the IC50: it is the concentration that inhibits the measured activity by half. The low end stands for inhibition by little substance, the high end for a need for much substance. The compound `NC1=NC(c2cccc(-c3cncnc3)c2)(c2ccnc(C(F)(F)F)c2)c2cccnc21` (single isomer, unassigned) [25, Isomer 1] yielded an IC50 greater than 31600 nM.

In the case of `NC1=NC(c2cccc(-c3cncc(Cl)c3)c2)(c2ccnc(C(F)(F)F)c2)c2cccnc21` (stereo not shown) [Example 21, 5-(3-(5-Chloropyridin-3-yl)phenyl)-5-(2-(trifluoromethyl)pyridin-4-yl)-5H-pyrrolo[3,4-b]pyridin-7-amine], the IC50 was determined as 239 nM. This lies in the sub-micromolar range.

In turn, `N#Cc1ccnc(-c2cccc(C3(c4ccnc(C(F)(F)F)c4)N=C(N)c4ncccc43)c2)c1` (stereo not shown) [Example 22, 2-(3-(7-Amino-5-(2-(trifluoromethyl)pyridin-4-yl)-5H-pyrrolo[3,4-b]pyridin-5-yl)phenyl)isonicotinonitrile] registered an IC50 of 1800 nM. Then `Cc1cc(C2(c3cccc(-c4cnccn4)c3)N=C(N)c3ncccc32)cc(C)c1OCF` (stereo not shown) [Example 27, 5-(4-(Fluoromethoxy)-3,5-dimethylphenyl)-5-(3-(pyrazin-2-yl)phenyl)-5H-pyrrolo[3,4-b]pyridin-7-amine], with 90 nM; and `COc1c(C)cc(C2(c3cccc(-c4cncnc4)c3)N=C(N)c3ncccc32)cc1F` (stereo not shown) [Example 36, 5-(3-Fluoro-4-methoxy-5-methylphenyl)-5-(3-(pyrimidin-5-yl)phenyl)-5H-pyrrolo[3,4-b]pyridin-7-amine], with 41 nM; and `NC1=NC(c2cccc(-c3cccc(Cl)c3)c2)(c2ccnc(C(F)(F)F)c2)c2cccnc21` (stereo not shown) [Example 1, 5-(3′-Chlorobiphenyl-3-yl)-5-(2-(trifluoromethyl)pyridin-4-yl)-5H-pyrrolo[3,4-b]pyridin-7-amine], with 400 nM. With `Cc1cc(C2(c3cccc(-c4cncnc4)c3)N=C(N)c3ncccc32)cc(C)c1OCF` (stereo not shown) [Example 26, 5-(4-(Fluoromethoxy)-3,5-dimethylphenyl)-5-(3-(pyrimidin-5-yl)phenyl)-5H-pyrrolo[3,4-b]pyridin-7-amine] the figure was 42 nM. `NC1=NC(c2cccc(-c3cccnc3)c2)(c2ccnc(C(F)(F)F)c2)c2cccnc21` (stereo not shown) [Example 3, 5-(3-(Pyridin-3-yl)phenyl)-5-(2-(trifluoromethyl)pyridin-4-yl)-5H-pyrrolo[3,4-b]pyridin-7-amine] displayed an IC50 of 560 nM. This IC50 is about 13-fold higher than that of the compound before. Compound `Cc1cc(C2(c3cccc(-c4cncnc4)c3)N=C(N)c3ncccc32)cc(C)c1OC(F)F` (stereo not shown) [Example 12, 5-(4-(Difluoromethoxy)-3,5-dimethylphenyl)-5-(3-(pyrimidin-5-yl)phenyl)-5H-pyrrolo[3,4-b]pyridin-7-amine] registered an IC50 of 47 nM. This IC50 is about 12-fold lower than that of the compound before. Then `NC1=NC(c2ccnc(C(F)(F)F)c2)(c2ccc(O)c(-c3ccccc3F)c2)c2cccnc21` (stereo not shown) [Example 38, 5-(7-Amino-5-(2-(trifluoromethyl)pyridin-4-yl)-5H-pyrrolo[3,4-b]pyridin-5-yl)-2′-fluorobiphenyl-2-ol], with 658 nM.

Regarding `COc1ccnc(-c2cccc(C3(c4ccnc(C(F)(F)F)c4)N=C(N)c4ncccc43)c2)c1` (stereo not shown) [Example 19, 5-(3-(4-methoxypyridin-2-yl)phenyl)-5-(2-(trifluoromethyl)pyridin-4-yl)-5H-pyrrolo[3,4-b]pyridin-7-amine], half-maximal inhibition (IC50) was put at 359 nM. With `Cc1cc(C2(c3ccnc(-c4cncnc4)c3)N=C(N)c3ncccc32)cc(C)c1OC(F)F` (stereo not shown) [Example 29, 5-(4-Difluoromethoxy-3,5-dimethyl-phenyl)-5-(2-pyrimidin-5-yl-pyridin-4-yl)-5H-pyrrolo[3,4-b]pyridin-7-ylamine] the figure was 106 nM; with `NC1=NC(c2cccc(-c3cncnc3)c2)(c2ccnc(OCC(F)(F)F)c2)c2cccnc21` (stereo not shown) [Example 16, 5-(3-(Pyrimidin-5-yl)phenyl)-5-(2-(2,2,2-trifluoroethoxy)pyridin-4-yl)-5H-pyrrolo[3,4-b]pyridin-7-amine 0.2 acetic acid], 1600 nM; with `Cc1cc(C2(c3cccc(C#N)c3)N=C(N)c3ncccc32)cc(C2CC2)c1OC(F)F` (stereo not shown) [Example 32, 3-[7-Amino-5-(3-cyclopropyl-4-difluoromethoxy-5-methyl-phenyl)-5H-pyrrolo[3,4-b]pyridin-5-yl]-benzonitrile], 61 nM.

Compound `COc1ccc(C2(c3cccc(-c4cncnc4)c3)N=C(N)c3ncccc32)cc1Cl` (stereo not shown) [Example 7, 5-(3-Chloro-4-methoxyphenyl)-5-(3-(pyrimidin-5-yl)phenyl)-5H-pyrrolo[3,4-b]pyridin-7-amine] yielded an IC50 of 248 nM. This IC50 is about 4.1-fold higher than that of the compound before.

Turning to `Cc1cc(C2(c3cccc(-c4cncnc4)c3)N=C(N)c3ncccc32)cc(C(F)F)n1` (stereo not shown) [Example 20, 5-(2-(Difluoromethyl)-6-methylpyridin-4-yl)-5-(3-(pyrimidin-5-yl)phenyl)-5H-pyrrolo[3,4-b]pyridin-7-amine], it took 445 nM to reach half-maximal inhibition (IC50). Compared with the last compound, the IC50 is about 1.8-fold higher. With `COc1ccc(F)c(-c2cc(C3(c4ccnc(C(F)(F)F)c4)N=C(N)c4ncccc43)ccc2O)c1` (stereo not shown) [Example 37, 5-(7-Amino-5-(2-(trifluoromethyl)pyridin-4-yl)-5H-pyrrolo[3,4-b]pyridin-5-yl)-2′-fluoro-5′-methoxybiphenyl-2-ol] the figure was 206 nM; with `NC1=NC(c2cccc(-c3cncnc3)c2)(c2ccnc(OC=C(F)F)c2)c2cccnc21` (stereo not shown) [Example 17, 5-(2-(2,2-Difluorovinyloxy)pyridin-4-yl)-5-(3-(pyrimidin-5-yl)phenyl)-5H-pyrrolo[3,4-b]pyridin-7-amine 0.2 acetic acid], 1140 nM.

`COc1c(F)cc(C2(c3ccc(F)c(-c4cncnc4)c3)N=C(N)c3ncccc32)cc1F` (stereo not shown) [Example 6, 5-(3,5-Difluoro-4-methoxyphenyl)-5-(4-fluoro-3-(pyrimidin-5-yl)phenyl)-5H-pyrrolo[3,4-b]pyridin-7-amine] displayed an IC50 of 156 nM. Then `COc1ccc(C2(c3cccc(-c4cnccn4)c3)N=C(N)c3ncccc32)cc1Cl` (stereo not shown) [Example 8, 5-(3-Chloro-4-methoxyphenyl)-5-(3-(pyrazin-2-yl)phenyl)-5H-pyrrolo[3,4-b]pyridin-7-amine], with 610 nM. With `NC1=NC(c2cccc(-c3cncnc3)c2)(c2ccnc(C(F)(F)F)c2)c2cccnc21` (single isomer, unassigned) [25, Isomer 2], it took 176 nM to reach half-maximal inhibition (IC50). Then `COc1ccc(C2(c3cccc(-c4cncnc4)c3)N=C(N)c3ncccc32)cc1C(F)F` (stereo not shown) [Example 24, 5-(3-(Difluoromethyl)-4-methoxyphenyl)-5-(3-(pyrimidin-5-yl)phenyl)-5H-pyrrolo[3,4-b]pyridin-7-amine], with 212 nM; and `NC1=NC(c2cccc(-c3cncnc3)c2)(c2ccnc(C(F)(F)F)c2)c2cccnc21` (stereo not shown) [Example 2, 5-(3-(pyrimidin-5-yl)phenyl)-5-(2-(trifluoromethyl)pyridin-4-yl)-5H-pyrrolo[3,4-b]pyridin-7-amine], with 350 nM; and `Cc1cc(C2(c3cccc(-c4cnccn4)c3)N=C(N)c3ncccc32)cc(C)c1OC(F)F` (stereo not shown) [Example 13, 5-(4-(Difluoromethoxy)-3,5-dimethylphenyl)-5-(3-(pyrazin-2-yl)phenyl)-5H-pyrrolo[3,4-b]pyridin-7-amine], with 38 nM. Then `Cc1cc(C2(c3cccc(-c4cncc(C#N)c4)c3)N=C(N)c3ncccc32)cc(C)n1` (stereo not shown) [Example 5, 5-(3-(7-Amino-5-(2,6-dimethylpyridin-4-yl)-5H-pyrrolo[3,4-b]pyridin-5-yl)phenyl)nicotinonitrile], with 2400 nM; and `NC1=NC(c2cccc(-c3cncnc3)c2)(c2ccc(OC(F)F)c(CCF)c2)c2cccnc21` (stereo not shown) [Example 34, 5-[4-Difluoromethoxy-3-(2-fluoro-ethyl)-phenyl]-5-(3-pyrimidin-5-yl-phenyl)-5H-pyrrolo[3,4-b]pyridin-7-ylamine], with 30 nM. Then `Cc1cc(C2(c3cccc(-c4cncnc4)c3)N=C(N)c3ncccc32)cc(C)n1` (stereo not shown) [Example 4, 5-(2,6-Dimethylpyridin-4-yl)-5-(3-(pyrimidin-5-yl)phenyl)-5H-pyrrolo[3,4-b]pyridin-7-amine], with 1800 nM; and `NC1=NC(c2cccc(-c3cncnc3)c2)(c2ccc(OC(F)F)c(C3CC3)c2)c2cccnc21` (stereo not shown) [Example 9, 5-(3-Cyclopropyl-4-(difluoromethoxy)phenyl)-5-(3-(pyrimidin-5-yl)phenyl)-5H-pyrrolo[3,4-b]pyridin-7-amine acetic acid], with 33 nM. Compound `NC1=NC(c2cccc(-c3cncnc3)c2)(c2ccnc(OCCCF)c2)c2cccnc21` (stereo not shown) [Example 28, 5-(2-(3-Fluoropropoxy)pyridin-4-yl)-5-(3-(pyrimidin-5-yl)phenyl)-5H-pyrrolo[3,4-b]pyridin-7-amine] registered an IC50 of 1560 nM. With `COc1ccc(C2(c3cccc(-c4cnccn4)c3)N=C(N)c3ncccc32)cc1C(F)F` (stereo not shown) [Example 23, 5-(3-(difluoromethyl)-4-methoxyphenyl)-5-(3-(pyrazin-2-yl)phenyl)-5H-pyrrolo[3,4-b]pyridin-7-amine] the figure was 288 nM; with `NC1=NC(c2cccc(-c3cncnc3)c2)(c2ccc(OC(F)F)c(F)c2)c2cccnc21` (stereo not shown) [Example 18, 5-(4-(Difluoromethoxy)-3-fluorophenyl)-5-(3-(pyrimidin-5-yl)phenyl)-5H-pyrrolo[3,4-b]pyridin-7-amine], 204 nM.
